Source: publication PMC8748775, “The sphingosine 1-phosphate receptor 2/4 antagonist JTE-013 elicits off-target effects on sphingolipid metabolism” (Scientific Reports, 2022)

Columns and labels:
[1] = biological target: T1, S1P lyase (Homo sapiens, UniProt O95470); assay: fluorogenic S1P lyase assay in overexpressing lysate, […] DOP; type: cell-based
T1 construct: gene SGPL1; FLAG-tagged human S1P lyase overexpressed in HEK293T cells (whole cell lysate)
T1 sequence (O95470 1-568): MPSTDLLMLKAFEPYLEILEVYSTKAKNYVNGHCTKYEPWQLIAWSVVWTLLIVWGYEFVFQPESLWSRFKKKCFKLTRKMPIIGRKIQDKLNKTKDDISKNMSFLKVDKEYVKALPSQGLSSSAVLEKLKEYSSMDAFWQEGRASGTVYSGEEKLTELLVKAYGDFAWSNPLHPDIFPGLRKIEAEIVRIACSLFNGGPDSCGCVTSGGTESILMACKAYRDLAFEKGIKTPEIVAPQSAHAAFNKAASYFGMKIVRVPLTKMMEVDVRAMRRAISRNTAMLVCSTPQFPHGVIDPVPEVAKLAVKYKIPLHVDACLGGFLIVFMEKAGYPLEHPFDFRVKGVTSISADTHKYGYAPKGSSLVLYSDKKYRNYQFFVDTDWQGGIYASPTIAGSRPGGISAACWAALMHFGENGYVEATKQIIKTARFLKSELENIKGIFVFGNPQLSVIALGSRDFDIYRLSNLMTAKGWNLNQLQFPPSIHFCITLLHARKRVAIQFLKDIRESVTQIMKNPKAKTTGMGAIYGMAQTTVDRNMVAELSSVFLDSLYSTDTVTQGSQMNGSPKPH

[2] = biological target: T2, sphingosine kinase 2 (SK2) (Homo sapiens, UniProt Q9NRA0); assay: in vitro radiometric [γ-32P]ATP sphingosine kinase assay with purified enzyme; type: biochemical
T2 construct: gene SPHK2; purified recombinant human SK2
T2 sequence (Q9NRA0 1-654): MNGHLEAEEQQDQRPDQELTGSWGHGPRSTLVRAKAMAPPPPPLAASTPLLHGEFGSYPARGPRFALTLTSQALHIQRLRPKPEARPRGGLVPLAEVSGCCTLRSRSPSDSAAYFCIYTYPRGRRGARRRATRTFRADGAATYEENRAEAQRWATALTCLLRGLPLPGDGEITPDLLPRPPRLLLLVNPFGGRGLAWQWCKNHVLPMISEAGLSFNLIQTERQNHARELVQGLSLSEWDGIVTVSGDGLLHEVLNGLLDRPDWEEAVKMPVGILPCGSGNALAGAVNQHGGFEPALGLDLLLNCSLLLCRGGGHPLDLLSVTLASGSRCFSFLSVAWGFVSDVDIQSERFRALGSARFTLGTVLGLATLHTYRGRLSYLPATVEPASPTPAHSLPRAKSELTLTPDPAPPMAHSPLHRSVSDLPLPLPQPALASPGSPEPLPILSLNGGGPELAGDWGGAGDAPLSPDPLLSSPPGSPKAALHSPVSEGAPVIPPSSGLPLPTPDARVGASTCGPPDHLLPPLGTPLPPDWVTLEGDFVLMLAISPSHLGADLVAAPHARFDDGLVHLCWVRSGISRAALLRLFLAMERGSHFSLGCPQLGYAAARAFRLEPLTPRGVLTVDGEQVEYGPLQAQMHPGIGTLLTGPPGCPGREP

[3] = biological target: T3, sphingosine kinase 1 (SK1) (Homo sapiens, UniProt Q9NYA1); assay: as above; type: biochemical
T3 construct: gene SPHK1; purified recombinant human SK1

[4] = biological target: T4, dihydroceramide desaturase 1 (Des1) (Homo sapiens, UniProt O15121); assay: HPLC NBD-C6-dhCer conversion; Ki from Des1-overexpressing HEK293T lysates, competitive inhibition confirmed with purified Des1-FLAG plus CYB5; type: biochemical
T4 construct: gene DEGS1; Des1-FLAG (C-terminal FLAG), expressed in HEK293T cells; with cytochrome B5 (CYB5)

[5] = substrate: CCCCCCCCCCCCCCC[C@@H](O)[C@H](CO)NC(=O)CCCCCNc1ccc([N+](=O)[O-])c2nonc12; assay: HPLC conversion to NBD-C6-Cer; KM from Des1-overexpressing lysates, turnover also with purified Des1-FLAG; type: biochemical, Homo sapiens; settings: NADPH; iron ((NH4)2Fe(SO4)[…] in purified assay)

T4 sequence (P00167 2-134 partner, one chain of several): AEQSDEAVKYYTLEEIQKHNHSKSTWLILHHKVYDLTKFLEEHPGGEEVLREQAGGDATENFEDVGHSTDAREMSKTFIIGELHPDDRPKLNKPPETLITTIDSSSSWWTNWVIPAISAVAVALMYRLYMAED
T3 sequence (Q9NYA1 whole entry): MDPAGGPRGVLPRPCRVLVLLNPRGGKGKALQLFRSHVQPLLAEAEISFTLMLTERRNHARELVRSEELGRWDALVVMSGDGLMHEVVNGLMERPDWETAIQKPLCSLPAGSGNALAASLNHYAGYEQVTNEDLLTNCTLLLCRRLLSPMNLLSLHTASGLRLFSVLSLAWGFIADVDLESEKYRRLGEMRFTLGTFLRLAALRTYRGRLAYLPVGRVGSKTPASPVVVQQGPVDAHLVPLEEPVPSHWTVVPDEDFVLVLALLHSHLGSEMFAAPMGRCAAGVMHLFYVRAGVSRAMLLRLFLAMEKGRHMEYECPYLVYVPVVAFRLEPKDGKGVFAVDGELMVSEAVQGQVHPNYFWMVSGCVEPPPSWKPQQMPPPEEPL

Cc1ncc(CO)c(C)c1O [DOP, 4-deoxypyridoxine]
fluorogenic S1P lyase assay in overexpressing lysate, 1.25 mM DOP [1]: known S1P lyase inhibitors 4-deoxypyridoxine and FTY720 both showed inhibition of S1P lyase activity

Cc1nn(C)c2nc(NNC(=O)Nc3c(Cl)cncc3Cl)cc(C(C)C)c12 [JTE-013]
IC50 [2]: 4.3 ± 0.5 µM
IC50 [3]: 25.1 ± 2.7 µM
Ki [4]: 9.2 ± 0.8 µM

B1: dihydroceramide desaturase 1 (Des1) (Homo sapiens) (protein)
chain: GSRVSREDFEWVYTDQPHADRRREILAKYPEIKSLMKPDPNLIWIIIMMVLTQLGAFYIVKDLDWKWVIFGAYAFGSCINHSMTLAIHEIAHNAAFGNCKAMWNRWFGMFANLPIGIPYSISFKRYHMDHHRYLGADGVDVDIPTDFEGWFFCTAFRKFIWVILQPLFYAFRPLFINPKPITYLEVINTVAQVTFDILIYYFLGIKSLVYMLAASLLGLGLHPISGHFIAEHYMFLKGHETYSYYGPLNLLTFNVGYHNEHHDFPNIPGKSLPLVRKIAAEYYDNLPHYNSWIKVLYDFVMDDTISPYSRMKRHQKGEMVLE
notes: Des1-FLAG (C-terminal FLAG), expressed in HEK293T cells; with cytochrome B5 (CYB5)
Km [5]: 0.3 µM
